According to patent US20170190671A1, “BIS(ARYL)CATECHOL DERIVATIVES AS HERBICIDES” (E I DU PONT DE NEMOURS AND COMPANY, priority 2014, published 2017):

Key:
Assay type in all cases: in vivo
[1] = test system: galium (catchweed bedstraw, Galium aparine); experiment: Test C postemergence; details: Galium, post-emergence, 336 h, Postemergence, scale 0 to 100, read-out: Plant response rating, Galium
How it was run: (§1)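 Visual ratings were made 13-15 days after treatment in the greenhouse, scored 0-100 against controls, where 100 means complete control. Treatments used a surfactant-containing non-phytotoxic solvent formulation, applied preemergence to seeds in loam-sand soil or postemergence to 2-18 cm plants (1-4 leaves) in peat-based medium.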

corn (Zea mays) [2] = experiment: Test C postemergence; details: Zea mays, post-emergence, 336 h, Postemergence, scale 0 to 100
How it was run: as §1

[3] = test system: ragweed (common ragweed, Ambrosia elatior); experiment: Test C postemergence; details: Ambrosia artemisiifolia, post-emergence, 336 h, Postemergence, scale 0 to 100, read-out: Plant response rating, Ragweed
How it was run: as §1

soybean (Glycine max) [4] = experiment: Test C postemergence; details: Glycine max, post-emergence, Postemergence, scale 0 to 100, read-out: Plant response rating, Soybean
How it was run: as §1

[5] = test system: waterhemp (common waterhemp, Amaranthus rudis); experiment: Test C postemergence; details: Amaranthus tuberculatus, post-emergence, Postemergence, scale 0 to 100, read-out: Plant response rating, Waterhemp
How it was run: as §1

[6] = test system: lambsquarters (Chenopodium album); experiment: Test C postemergence; details: Chenopodium album, post-emergence, 336 h, Postemergence, scale 0 to 100, read-out: Plant response rating, Lambsquarters
How it was run: as §1

[7] = test system: johnsongrass (Sorghum halepense); experiment: Test C preemergence; details: Sorghum halepense, pre-emergence, 336 h, scale 0 to 100, read-out: Plant response rating, Johnsongrass
How it was run: as §1

[8] = test system: Italian ryegrass (Lolium multiflorum); experiment: Test C preemergence; details: Lolium multiflorum, pre-emergence, 336 h, scale 0 to 100, read-out: Plant response rating, Ryegrass, Italian
How it was run: as §1

corn (Zea mays) [9] = experiment: Test C preemergence; details: Zea mays, pre-emergence, 336 h, scale 0 to 100
How it was run: as §1

[10] = test system: pigweed (Amaranthus retroflexus); experiment: Test C preemergence; details: Amaranthus retroflexus, pre-emergence, 336 h, scale 0 to 100, read-out: Plant response rating, Pigweed
How it was run: as §1

[11] = test system: oilseed rape (Brassica napus); experiment: Test C preemergence; details: Brassica napus, pre-emergence, scale 0 to 100, read-out: Plant response rating, Oilseed Rape
How it was run: as §1

soybean (Glycine max) [12] = experiment: Test C preemergence; details: Glycine max, pre-emergence, scale 0 to 100, read-out: Plant response rating, Soybean
How it was run: as §1

[13] = test system: large (Lg) crabgrass (Digitaria sanguinalis); experiment: Test C preemergence; details: Digitaria sanguinalis, pre-emergence, 336 h, scale 0 to 100, read-out: Plant response rating, Crabgrass, Large
How it was run: as §1

[14] = test system: velvetleaf (Abutilon theophrasti); experiment: Test C preemergence; details: Abutilon theophrasti, pre-emergence, scale 0 to 100, read-out: Plant response rating, Velvetleaf
How it was run: as §1

[15] = test system: winter wheat (Triticum aestivum); experiment: Test C preemergence; details: Triticum aestivum, pre-emergence, 336 h, scale 0 to 100, read-out: Plant response rating, Wheat
How it was run: as §1

[16] = test system: yellow nutsedge (Cyperus esculentus); experiment: Test C preemergence; details: Cyperus, pre-emergence, 336 h, scale 0 to 100, read-out: Plant response rating, Nutsedge, Yellow
How it was run: as §1

[17] = test system: giant foxtail (Setaria faberii); experiment: Test C preemergence; details: Setaria faberi, pre-emergence, 336 h, scale 0 to 100, read-out: Plant response rating, Foxtail, Giant
How it was run: as §1

[18] = test system: barnyardgrass (Echinochloa crus-galli); experiment: Test C preemergence; details: Echinochloa crus-galli, pre-emergence, read-out: Plant response rating, Barnyardgrass
How it was run: as §1

[19] = test system: waterhemp (common waterhemp, Amaranthus rudis); experiment: Test C preemergence; details: Amaranthus tuberculatus, pre-emergence, scale 0 to 100, read-out: Plant response rating, Waterhemp
How it was run: as §1

[20] = test system: morningglory (Ipomoea coccinea); experiment: Test C preemergence; details: Ipomoea, pre-emergence, 336 h, scale 0 to 100, read-out: Plant response rating, Morningglory
How it was run: as §1

[21] = test system: lambsquarters (Chenopodium album); experiment: Test C preemergence; details: Chenopodium album, pre-emergence, 336 h, scale 0 to 100, read-out: Plant response rating, Lambsquarters
How it was run: as §1

[22] = test system: blackgrass (Alopecurus myosuroides); experiment: Test C preemergence; details: Alopecurus myosuroides, pre-emergence, 336 h, scale 0 to 100, read-out: Plant response rating, Blackgrass
How it was run: as §1

Fc1cccc(Oc2ncc(Cl)cn2)c1Oc1ncc(C(F)(F)F)cn1 [Compound 43, 5-chloro-2-[5-fluoro-6-[[5-(trifluoromethyl)-2-pyrimidinyl]oxy]phenoxy]pyrimidine] was tested, and the pest or weed control at 16 g/ha ([1]; 16 g ai/ha) was 35%, the pest or weed control at 31 g/ha ([1]; 31 g ai/ha) was 80% and the pest or weed control at 62 g/ha ([1]; 62 g ai/ha) was 85%. It also gave a pest or weed control at 125 g/ha ([1]; 125 g ai/ha) of 90%, a Corn plant response rating (crop injury, 0 = no effect, 100 = complete kill) at 16 g/ha (corn (Zea mays) [2]; 16 g ai/ha) of 5% and a Corn plant response rating (crop injury, 0 = no effect, 100 = complete kill) at 31 g/ha (corn (Zea mays) [2]; 31 g ai/ha) of 5%. The Corn plant response rating (crop injury, 0 = no effect, 100 = complete kill) at 62 g/ha (corn (Zea mays) [2]; 62 g ai/ha) was 5%, the Corn plant response rating (crop injury, 0 = no effect, 100 = complete kill) at 125 g/ha (corn (Zea mays) [2]; 125 g ai/ha) was 5% and the pest or weed control at 31 g/ha ([3]; 31 g ai/ha) was 75%. It also gave a pest or weed control at 62 g/ha ([3]; 62 g ai/ha) of 65%, a pest or weed control at 125 g/ha ([3]; 125 g ai/ha) of 80% and a plant injury at 31 g/ha (soybean (Glycine max) [4]; 31 g ai/ha) of 55%. The plant injury at 62 g/ha (soybean (Glycine max) [4]; 62 g ai/ha) was 75%, the plant injury at 125 g/ha (soybean (Glycine max) [4]; 125 g ai/ha) was 70% and the pest or weed control at 31 g/ha ([5]; 31 g ai/ha) was 70%. For the same compound, the pest or weed control at 62 g/ha ([5]; 62 g ai/ha) was 80%, the pest or weed control at 125 g/ha ([5]; 125 g ai/ha) was 90% and the pest or weed control at 16 g/ha ([6]; 16 g ai/ha) was 60%. For the same compound, the pest or weed control at 31 g/ha ([6]; 31 g ai/ha) was 80%, the pest or weed control at 62 g/ha ([6]; 62 g ai/ha) was 90% and the pest or weed control at 125 g/ha ([6]; 125 g ai/ha) was 95%. For the same compound, the pest or weed control at 31 g/ha ([7]; 31 g ai/ha, preemergence) was 75%, the pest or weed control at 62 g/ha ([7]; 62 g ai/ha, preemergence) was 100% and the pest or weed control at 125 g/ha ([7]; 125 g ai/ha, preemergence) was 100%. It also gave a pest or weed control at 16 g/ha ([7]; Preemergence, 16 g ai/ha) of 20%, a pest or weed control at 31 g/ha ([8]; 31 g ai/ha, preemergence) of 50% and a pest or weed control at 62 g/ha ([8]; 62 g ai/ha, preemergence) of 85%. For the same compound, the pest or weed control at 125 g/ha ([8]; 125 g ai/ha, preemergence) was 95%, the pest or weed control at 16 g/ha ([8]; Preemergence, 16 g ai/ha) was 5% and the Corn plant response rating (crop injury, 0 = no effect, 100 = complete kill) at 31 g/ha (corn (Zea mays) [9]; 31 g ai/ha, preemergence) was 20%. For the same compound, the Corn plant response rating (crop injury, 0 = no effect, 100 = complete kill) at 62 g/ha (corn (Zea mays) [9]; 62 g ai/ha, preemergence) was 65%, the Corn plant response rating (crop injury, 0 = no effect, 100 = complete kill) at 125 g/ha (corn (Zea mays) [9]; 125 g ai/ha, preemergence) was 90% and the Corn plant response rating (crop injury, 0 = no effect, 100 = complete kill) at 16 g/ha (corn (Zea mays) [9]; Preemergence, 16 g ai/ha) was 20%. The pest or weed control at 31 g/ha ([10]; 31 g ai/ha, preemergence) was 100%, the pest or weed control at 62 g/ha ([10]; 62 g ai/ha, preemergence) was 100% and the pest or weed control at 125 g/ha ([10]; 125 g ai/ha, preemergence) was 100%. It also gave a pest or weed control at 16 g/ha ([10]; Preemergence, 16 g ai/ha) of 100%, a plant injury at 31 g/ha ([11]; 31 g ai/ha, preemergence) of 100% and a plant injury at 62 g/ha ([11]; 62 g ai/ha, preemergence) of 100%. The plant injury at 125 g/ha ([11]; 125 g ai/ha, preemergence) was 100%, the plant injury at 16 g/ha ([11]; Preemergence, 16 g ai/ha) was 95% and the plant injury at 31 g/ha (soybean (Glycine max) [12]; 31 g ai/ha, preemergence) was 45%. It also gave a plant injury at 62 g/ha (soybean (Glycine max) [12]; 62 g ai/ha, preemergence) of 75%, a plant injury at 125 g/ha (soybean (Glycine max) [12]; 125 g ai/ha, preemergence) of 90% and a plant injury at 16 g/ha (soybean (Glycine max) [12]; Preemergence, 16 g ai/ha) of 30%. For the same compound, the pest or weed control at 31 g/ha ([13]; 31 g ai/ha, preemergence) was 100%, the pest or weed control at 62 g/ha ([13]; 62 g ai/ha, preemergence) was 100% and the pest or weed control at 125 g/ha ([13]; 125 g ai/ha, preemergence) was 100%. For the same compound, the pest or weed control at 16 g/ha ([13]; Preemergence, 16 g ai/ha) was 100%, the pest or weed control at 31 g/ha ([14]; 31 g ai/ha, preemergence) was 100% and the pest or weed control at 62 g/ha ([14]; 62 g ai/ha, preemergence) was 100%. The pest or weed control at 125 g/ha ([14]; 125 g ai/ha, preemergence) was 100%, the pest or weed control at 16 g/ha ([14]; Preemergence, 16 g ai/ha) was 100% and the plant injury at 31 g/ha ([15]; 31 g ai/ha, preemergence) was 25%. For the same compound, the plant injury at 62 g/ha ([15]; 62 g ai/ha, preemergence) was 40%, the plant injury at 125 g/ha ([15]; 125 g ai/ha, preemergence) was 90% and the plant injury at 16 g/ha ([15]; Preemergence, 16 g ai/ha) was 5%. The pest or weed control at 31 g/ha ([16]; 31 g ai/ha, preemergence) was 0%, the pest or weed control at 62 g/ha ([16]; 62 g ai/ha, preemergence) was 35% and the pest or weed control at 125 g/ha ([16]; 125 g ai/ha, preemergence) was 60%. For the same compound, the pest or weed control at 16 g/ha ([16]; Preemergence, 16 g ai/ha) was 100%, the pest or weed control at 31 g/ha ([17]; 31 g ai/ha, preemergence) was 100% and the pest or weed control at 62 g/ha ([17]; 62 g ai/ha, preemergence) was 100%. For the same compound, the pest or weed control at 125 g/ha ([17]; 125 g ai/ha, preemergence) was 100%, the pest or weed control at 16 g/ha ([17]; Preemergence, 16 g ai/ha) was 95% and the pest or weed control at 31 g/ha ([18]; 31 g ai/ha, preemergence, scale 0 to 100) was 85%. It also gave a pest or weed control at 62 g/ha ([18]; 62 g ai/ha, preemergence, scale 0 to 100) of 100%, a pest or weed control at 125 g/ha ([18]; 125 g ai/ha, preemergence, scale 0 to 100) of 100% and a pest or weed control at 16 g/ha ([18]; Preemergence, 16 g ai/ha, scale 0 to 100 (0 no effect, 100 complete control)) of 60%. For the same compound, the pest or weed control at 31 g/ha ([19]; 31 g ai/ha, preemergence) was 100%, the pest or weed control at 62 g/ha ([19]; 62 g ai/ha, preemergence) was 100% and the pest or weed control at 125 g/ha ([19]; 125 g ai/ha, preemergence) was 100%. It also gave a pest or weed control at 16 g/ha ([19]; Preemergence, 16 g ai/ha) of 85%, a pest or weed control at 31 g/ha ([20]; 31 g ai/ha, preemergence) of 85% and a pest or weed control at 62 g/ha ([20]; 62 g ai/ha, preemergence) of 100%. It also gave a pest or weed control at 125 g/ha ([20]; 125 g ai/ha, preemergence) of 100%, a pest or weed control at 16 g/ha ([20]; Preemergence, 16 g ai/ha) of 70% and a pest or weed control at 31 g/ha ([21]; 31 g ai/ha, preemergence) of 100%. The pest or weed control at 62 g/ha ([21]; 62 g ai/ha, preemergence) was 100%, the pest or weed control at 125 g/ha ([21]; 125 g ai/ha, preemergence) was 100% and the pest or weed control at 16 g/ha ([21]; Preemergence, 16 g ai/ha) was 100%. For the same compound, the pest or weed control at 31 g/ha ([22]; 31 g ai/ha, preemergence) was 50%, the pest or weed control at 62 g/ha ([22]; 62 g ai/ha, preemergence) was 90% and the pest or weed control at 125 g/ha ([22]; 125 g ai/ha, preemergence) was 95%. It also gave a pest or weed control at 16 g/ha ([22]; Preemergence, 16 g ai/ha) of 40%.
